From patent US7498409B2, “Screening assay for TLR7, TLR8 and TLR9 agonists and antagonists” (Schering Corporation, priority 2005, dated 2009) come the findings set out here.

One series deals with T1, wild-type TLR8 (Homo sapiens, UniProt Q9NR97).
T1 construct: printed for the mutant only, inferred for the wild type (N); expressed in transfected cells; host or cells: HEK 293
T1 sequence (Q9NR97 1-1059 isoform Q9NR97-2): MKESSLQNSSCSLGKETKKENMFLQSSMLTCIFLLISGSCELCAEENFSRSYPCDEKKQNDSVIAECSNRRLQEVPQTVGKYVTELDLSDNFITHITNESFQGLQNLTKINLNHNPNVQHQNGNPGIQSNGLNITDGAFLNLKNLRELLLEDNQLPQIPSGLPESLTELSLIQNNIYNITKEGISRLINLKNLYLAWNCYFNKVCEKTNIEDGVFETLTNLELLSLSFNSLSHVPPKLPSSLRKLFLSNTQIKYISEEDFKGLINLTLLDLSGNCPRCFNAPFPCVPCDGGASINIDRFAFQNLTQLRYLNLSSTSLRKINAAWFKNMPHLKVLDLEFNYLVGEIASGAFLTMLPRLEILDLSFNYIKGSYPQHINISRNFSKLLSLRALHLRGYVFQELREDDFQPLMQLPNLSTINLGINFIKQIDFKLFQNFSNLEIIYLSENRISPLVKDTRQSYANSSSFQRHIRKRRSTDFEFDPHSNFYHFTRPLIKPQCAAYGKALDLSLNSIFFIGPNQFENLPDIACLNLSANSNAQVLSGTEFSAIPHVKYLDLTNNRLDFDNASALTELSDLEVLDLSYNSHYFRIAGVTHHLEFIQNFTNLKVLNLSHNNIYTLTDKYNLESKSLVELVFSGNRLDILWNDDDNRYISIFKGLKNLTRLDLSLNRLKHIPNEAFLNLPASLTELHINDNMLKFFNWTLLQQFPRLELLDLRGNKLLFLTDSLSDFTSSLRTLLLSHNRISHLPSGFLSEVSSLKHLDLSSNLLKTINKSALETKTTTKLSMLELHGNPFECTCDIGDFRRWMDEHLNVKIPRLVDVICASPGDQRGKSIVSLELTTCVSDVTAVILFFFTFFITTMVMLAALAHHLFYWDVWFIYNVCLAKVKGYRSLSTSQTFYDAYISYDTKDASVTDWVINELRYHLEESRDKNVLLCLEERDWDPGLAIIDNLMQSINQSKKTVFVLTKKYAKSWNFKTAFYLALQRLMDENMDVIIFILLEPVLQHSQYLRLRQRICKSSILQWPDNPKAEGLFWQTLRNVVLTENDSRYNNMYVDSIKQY
Put plainly: NFκB-luciferase reporter assay in transfected HEK 293 cells, wild-type TLR8. In kind it is cell-based. The source says:
(§1) Wells without agonist served as negative controls.
For orientation: In a reporter assay the amount or activity of a reporter protein is the signal.

Series [1] addresses T2, mutant TLR8 containing a deletion in the second LRR (Homo sapiens, UniProt Q9NR97, DEL100-104).
T2 construct: expressed in transfected cells; host or cells: HEK 293
T2 sequence (Q9NR97 with tags, fused parts or gaps DEL100-104): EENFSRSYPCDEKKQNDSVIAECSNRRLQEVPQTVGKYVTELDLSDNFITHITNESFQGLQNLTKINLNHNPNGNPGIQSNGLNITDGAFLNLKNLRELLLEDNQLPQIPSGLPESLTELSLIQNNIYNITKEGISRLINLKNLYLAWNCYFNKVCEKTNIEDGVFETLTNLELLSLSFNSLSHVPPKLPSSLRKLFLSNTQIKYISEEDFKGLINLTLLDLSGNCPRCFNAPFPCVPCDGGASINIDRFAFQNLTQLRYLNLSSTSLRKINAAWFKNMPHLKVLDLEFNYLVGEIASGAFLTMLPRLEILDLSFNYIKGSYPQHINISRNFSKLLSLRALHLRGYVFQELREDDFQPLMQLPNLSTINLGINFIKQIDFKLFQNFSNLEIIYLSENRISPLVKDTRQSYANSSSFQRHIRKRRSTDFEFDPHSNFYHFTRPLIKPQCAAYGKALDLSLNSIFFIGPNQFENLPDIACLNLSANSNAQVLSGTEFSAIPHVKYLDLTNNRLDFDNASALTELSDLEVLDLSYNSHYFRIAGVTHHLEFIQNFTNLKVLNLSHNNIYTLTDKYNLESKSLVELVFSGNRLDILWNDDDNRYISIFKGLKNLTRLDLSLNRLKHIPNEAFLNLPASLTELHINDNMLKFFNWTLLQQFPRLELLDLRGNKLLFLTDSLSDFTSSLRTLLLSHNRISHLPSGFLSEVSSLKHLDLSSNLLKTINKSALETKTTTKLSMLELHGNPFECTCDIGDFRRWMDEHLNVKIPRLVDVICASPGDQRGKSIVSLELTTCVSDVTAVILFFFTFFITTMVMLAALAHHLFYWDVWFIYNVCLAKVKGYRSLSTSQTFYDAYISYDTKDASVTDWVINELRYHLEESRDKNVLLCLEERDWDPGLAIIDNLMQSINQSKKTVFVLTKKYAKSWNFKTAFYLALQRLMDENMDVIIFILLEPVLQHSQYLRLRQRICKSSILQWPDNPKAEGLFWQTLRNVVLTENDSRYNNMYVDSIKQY
In words: NFκB-luciferase reporter assay in transfected HEK 293 cells, mutant TLR8 (pCMVhuTLR8Δ2). In kind it is cell-based. To be noted: HEK 293, 5 h.
Excerpt: The mutation was confirmed by DNA sequencing.
as §1

For the next series, the target named is T3, wild-type TLR7 (Homo sapiens, UniProt Q9NYK1).
T3 construct: expressed in transfected cells; host or cells: HEK 293
T3 sequence (Q9NYK1 27-1049): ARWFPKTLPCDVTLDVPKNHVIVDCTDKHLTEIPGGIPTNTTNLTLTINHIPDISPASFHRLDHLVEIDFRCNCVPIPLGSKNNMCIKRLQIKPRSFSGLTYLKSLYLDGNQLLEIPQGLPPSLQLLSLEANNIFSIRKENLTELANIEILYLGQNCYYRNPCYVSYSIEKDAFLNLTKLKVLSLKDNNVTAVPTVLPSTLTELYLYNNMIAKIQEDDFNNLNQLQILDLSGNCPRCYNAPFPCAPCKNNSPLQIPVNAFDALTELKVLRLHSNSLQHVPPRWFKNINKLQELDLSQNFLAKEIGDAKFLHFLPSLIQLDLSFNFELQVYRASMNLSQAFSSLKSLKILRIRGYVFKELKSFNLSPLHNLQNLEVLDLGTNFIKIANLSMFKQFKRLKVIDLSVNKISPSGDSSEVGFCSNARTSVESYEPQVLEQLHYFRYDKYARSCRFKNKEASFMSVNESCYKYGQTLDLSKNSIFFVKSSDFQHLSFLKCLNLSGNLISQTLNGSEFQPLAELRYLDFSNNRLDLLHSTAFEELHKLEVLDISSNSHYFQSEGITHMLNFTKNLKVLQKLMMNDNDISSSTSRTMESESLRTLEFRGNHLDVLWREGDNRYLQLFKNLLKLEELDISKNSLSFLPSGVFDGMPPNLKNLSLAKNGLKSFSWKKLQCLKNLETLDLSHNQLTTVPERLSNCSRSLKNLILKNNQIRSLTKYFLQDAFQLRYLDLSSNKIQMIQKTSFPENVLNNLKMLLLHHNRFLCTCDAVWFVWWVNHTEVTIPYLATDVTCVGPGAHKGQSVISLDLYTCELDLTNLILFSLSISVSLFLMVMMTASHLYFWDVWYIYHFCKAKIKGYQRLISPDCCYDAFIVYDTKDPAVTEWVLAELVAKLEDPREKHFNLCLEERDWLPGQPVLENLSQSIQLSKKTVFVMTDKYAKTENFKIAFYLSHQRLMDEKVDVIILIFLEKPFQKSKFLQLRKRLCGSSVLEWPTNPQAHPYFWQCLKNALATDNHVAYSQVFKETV
Put plainly: NFκB-luciferase reporter assay in transfected HEK 293 cells, wild-type TLR7. In kind it is cell-based.
Excerpt: as §1

In series [2] the test system is mutant TLR7 containing a deletion in the second LRR. In words: NFκB-luciferase reporter assay in transfected HEK 293 cells, mutant TLR7 (pCMVhuTLR7Δ2). In kind it is cell-based, human. Set-up: fold lower concentration sufficient for full activation of mutant TLR7 versus wild-type TLR7: dose or concentration left out as unconfirmed. The source says:
(§2) ID NO: 11) and the antisense primer [NT] ID NO: 12). […] The mutation was confirmed by DNA sequencing. […] Wells without agonist served as negative controls.

Series [3] concerns the target T4, mutant TLR7 containing a deletion in the second LRR (Homo sapiens, UniProt Q9NYK1, DEL102-106).
T4 construct: expressed in transfected cells; host or cells: HEK 293
T4 sequence (Q9NYK1 with tags, fused parts or gaps DEL102-106): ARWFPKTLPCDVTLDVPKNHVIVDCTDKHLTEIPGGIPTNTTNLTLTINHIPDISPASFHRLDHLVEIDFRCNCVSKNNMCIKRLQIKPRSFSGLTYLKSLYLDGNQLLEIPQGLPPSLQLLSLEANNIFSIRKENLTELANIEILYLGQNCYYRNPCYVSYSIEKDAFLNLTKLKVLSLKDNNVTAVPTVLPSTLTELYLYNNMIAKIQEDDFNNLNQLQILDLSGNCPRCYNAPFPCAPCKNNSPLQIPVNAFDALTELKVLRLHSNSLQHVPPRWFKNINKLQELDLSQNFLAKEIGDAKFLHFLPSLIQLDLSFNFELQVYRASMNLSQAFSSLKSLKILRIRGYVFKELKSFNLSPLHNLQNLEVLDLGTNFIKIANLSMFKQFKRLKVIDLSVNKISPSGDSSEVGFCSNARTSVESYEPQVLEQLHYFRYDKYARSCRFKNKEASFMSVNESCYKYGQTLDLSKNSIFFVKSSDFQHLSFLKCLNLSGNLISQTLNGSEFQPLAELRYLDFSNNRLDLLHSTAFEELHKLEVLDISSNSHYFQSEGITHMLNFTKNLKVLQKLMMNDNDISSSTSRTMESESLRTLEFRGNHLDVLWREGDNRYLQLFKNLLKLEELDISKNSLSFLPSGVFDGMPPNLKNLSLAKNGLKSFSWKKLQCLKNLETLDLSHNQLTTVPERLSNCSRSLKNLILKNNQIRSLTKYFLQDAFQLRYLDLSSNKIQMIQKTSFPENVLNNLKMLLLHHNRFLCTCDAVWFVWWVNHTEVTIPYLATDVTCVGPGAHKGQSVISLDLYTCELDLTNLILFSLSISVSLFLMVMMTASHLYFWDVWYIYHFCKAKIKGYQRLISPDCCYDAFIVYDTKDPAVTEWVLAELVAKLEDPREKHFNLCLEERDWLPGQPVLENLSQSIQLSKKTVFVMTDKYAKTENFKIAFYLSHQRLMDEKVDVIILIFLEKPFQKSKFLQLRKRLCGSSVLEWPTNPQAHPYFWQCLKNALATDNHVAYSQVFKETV
The description is as above. In kind it is cell-based. Set-up: fold lower concentration sufficient for full activation of mutant TLR7 versus wild-type TLR7: dose or concentration left out as unconfirmed.
Excerpt: as §2

As to `CCOCc1nc2c(N)nc3ccccc3c2n1CC(C)(C)O` [R848], the “concentration required to achieve 5-fold induction of luciferase” value at wild-type TLR8 (HEK 293, NFκB-luciferase) is given as “at least 0.5 μM”. Further, the induction of luciferase in series [1] (50 nm of R848) is recorded as around 10 fold. In addition, at wild-type TLR7 (10 nM R848, HEK 293, 5 h), the “activation of wild-type TLR7 (luciferase activity)” value is “did not result in significant activation”. The “concentration giving close-to-maximum activation of wild-type TLR7” value on wild-type TLR7 (HEK 293, NFκB-luciferase) is 1 µM. The “fold lower concentration sufficient for full activation of mutant TLR7 versus wild-type TLR7” value in series [2] (compared with for wild-type TLR7) worked out at 10 fold. In addition, the “induction of luciferase activity” value in series [3] (10 nM R848, HEK 293, 5 h, vs medium alone) turned out to be 6 fold.
Turning to `C=CCn1c(=O)n([C@@H]2O[C@H](CO)[C@@H](O)[C@H]2O)c2nc(N)[nH]c(=O)c21` [loxoribine], the “concentration at which wild-type TLR7 is activated” value on wild-type TLR7 (HEK 293, NFκB-luciferase) is reported as “greater than 0.5 mM”. Besides, the “fold lower concentration for same activation of mutant TLR7 versus wild-type TLR7” value in series [2] (0.1 mM versus 0.5 mM) came to 5 fold. Moreover, in series [3] (same activation as wild-type TLR7 at >0.5 mM), the “concentration achieving the same activation with mutant TLR7” value was 0.1 mM.
For `O=c1ccn([C@@H]2O[C@H](CO)[C@@H](O)[C@H]2O)c(=O)[nH]1` [uridine], the “activation of wild-type TLR8 (luciferase)” value on wild-type TLR8 (4.5 mM uridine, HEK 293, 5 h) is 3 fold. Besides, the “activation of mutant TLR8 (luciferase)” value in series [1] (4.5 mM uridine) is 15 fold.
